Source: patent publication US10231954B2, “Neurodegenerative therapies” (LYTIX BIOPHARMA AS, priority 2014, dated 2019)

What was measured:
Type in all cases: biochemical
MKK1 = MKK1 (Homo sapiens, UniProt Q02750); assay: Kinase profiling MKK1; conditions: for residual kinase activity, MKK1: 100 micromolar inhibitor concentration, 100 is no change
Source text: (§1) Any value less that 25 is considered to be highly significant inhibition.

PKD1 = molecular target: T1, PKD1 (Homo sapiens, UniProt Q15139); assay: Kinase profiling PKD1; conditions: for residual kinase activity, PKD1: 100 micromolar inhibitor concentration, 100 is no change
T1 sequence (Q15139 1-912): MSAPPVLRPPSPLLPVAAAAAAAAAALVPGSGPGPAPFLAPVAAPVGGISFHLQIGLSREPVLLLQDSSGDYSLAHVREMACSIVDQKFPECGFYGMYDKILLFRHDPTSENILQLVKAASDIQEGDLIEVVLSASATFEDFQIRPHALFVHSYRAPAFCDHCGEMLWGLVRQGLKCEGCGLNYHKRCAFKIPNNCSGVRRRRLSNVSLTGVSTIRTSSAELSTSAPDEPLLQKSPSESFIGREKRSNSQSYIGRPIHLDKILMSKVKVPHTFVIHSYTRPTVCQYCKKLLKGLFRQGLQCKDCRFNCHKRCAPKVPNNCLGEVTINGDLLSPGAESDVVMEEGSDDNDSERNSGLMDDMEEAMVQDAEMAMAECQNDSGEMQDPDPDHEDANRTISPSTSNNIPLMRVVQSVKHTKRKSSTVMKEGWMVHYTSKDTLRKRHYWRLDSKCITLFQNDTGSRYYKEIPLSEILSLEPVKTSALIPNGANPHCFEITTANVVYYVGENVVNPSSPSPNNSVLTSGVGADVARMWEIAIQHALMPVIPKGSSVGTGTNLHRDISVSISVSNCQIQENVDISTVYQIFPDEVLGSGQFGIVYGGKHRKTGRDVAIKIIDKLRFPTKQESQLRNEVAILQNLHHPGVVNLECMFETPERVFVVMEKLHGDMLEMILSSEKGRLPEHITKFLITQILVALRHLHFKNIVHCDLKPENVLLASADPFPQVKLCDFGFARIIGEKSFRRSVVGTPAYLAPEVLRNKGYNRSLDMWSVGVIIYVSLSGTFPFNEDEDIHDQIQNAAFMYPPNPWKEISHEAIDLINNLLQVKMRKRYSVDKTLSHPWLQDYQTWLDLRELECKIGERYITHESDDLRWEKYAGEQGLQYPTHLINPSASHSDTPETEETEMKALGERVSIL
Source text: as §1

VEG-FR = assay: Kinase profiling VEG-FR; conditions: 100 micromolar inhibitor concentration; 100 is no change
Source text: as §1

SGK1 = molecular target: T2, SGK1 (Homo sapiens, UniProt O00141); assay: Kinase profiling SGK1; conditions: for residual kinase activity, SGK1: 100 micromolar inhibitor concentration, 100 is no change
T2 sequence (O00141 1-431): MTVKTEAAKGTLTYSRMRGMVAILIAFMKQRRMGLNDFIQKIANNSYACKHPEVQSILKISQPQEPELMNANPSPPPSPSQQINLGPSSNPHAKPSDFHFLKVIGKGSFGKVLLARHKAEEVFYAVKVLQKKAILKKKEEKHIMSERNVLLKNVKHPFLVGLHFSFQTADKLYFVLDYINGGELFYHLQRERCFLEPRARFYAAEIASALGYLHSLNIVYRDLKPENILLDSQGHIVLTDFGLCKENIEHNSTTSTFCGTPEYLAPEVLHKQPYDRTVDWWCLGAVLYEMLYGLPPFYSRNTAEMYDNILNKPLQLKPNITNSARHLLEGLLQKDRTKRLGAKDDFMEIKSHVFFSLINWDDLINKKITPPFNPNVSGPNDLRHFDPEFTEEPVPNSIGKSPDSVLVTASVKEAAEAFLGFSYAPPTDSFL
Source text: as §1

JAK2 = JAK2 (Homo sapiens, UniProt O60674); assay: Kinase profiling JAK2; conditions: for residual kinase activity, JAK2: 100 micromolar inhibitor concentration, 100 is no change
Source text: as §1

CHK2 = CHK2 (Homo sapiens, UniProt O96017); assay: Kinase profiling CHK2; conditions: for residual kinase activity, CHK2: 100 micromolar inhibitor concentration, 100 is no change
Source text: as §1

TrkA = TrkA (Homo sapiens, UniProt P04629); assay: Kinase profiling TrkA; conditions: for residual kinase activity, TrkA: 100 micromolar inhibitor concentration, 100 is no change
Source text: as §1

TAK1 = molecular target: T3, TAK1 (Homo sapiens, UniProt O43318); assay: Kinase profiling TAK1; conditions: for residual kinase activity, TAK1: 100 micromolar inhibitor concentration, 100 is no change
T3 sequence (O43318 1-303 limits assumed): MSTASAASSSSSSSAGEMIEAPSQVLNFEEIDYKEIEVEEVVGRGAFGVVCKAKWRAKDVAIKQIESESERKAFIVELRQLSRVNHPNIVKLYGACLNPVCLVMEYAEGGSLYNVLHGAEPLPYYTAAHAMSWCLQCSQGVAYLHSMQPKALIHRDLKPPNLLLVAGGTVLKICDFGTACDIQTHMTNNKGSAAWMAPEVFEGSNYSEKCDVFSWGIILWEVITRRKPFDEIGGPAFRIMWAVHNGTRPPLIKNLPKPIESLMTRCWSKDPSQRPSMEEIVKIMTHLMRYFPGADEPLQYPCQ
T3 sequence (Q15750 437-504 partner limits assumed): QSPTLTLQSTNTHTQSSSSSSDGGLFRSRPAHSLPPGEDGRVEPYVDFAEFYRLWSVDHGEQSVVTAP
Source text: as §1

EF2K = EF2K (Homo sapiens, UniProt O00418); assay: Kinase profiling EF2K; conditions: for residual kinase activity, EF2K: 100 micromolar inhibitor concentration, 100 is no change
Source text: as §1

DYRK1A = DYRK1A (Homo sapiens, UniProt Q13627); assay: DYRK 1A assay (kinase profiling); conditions: for residual kinase activity, DYRK1A: 100 micromolar inhibitor concentration, 100 is no change
Procedure: Assays are stopped by addition of 5 μl of 0.5 M (3%) orthophosphoric acid and then harvested onto P81 Unifilter plates with a wash buffer of 50 mM orthophosphoric acid.
as §1

HIPK2 = HIPK2 (Homo sapiens, UniProt Q9H2X6); assay: Kinase profiling HIPK2; conditions: for residual kinase activity, HIPK2: 100 micromolar inhibitor concentration, 100 is no change
Source text: as §1

Chain of HIPK2 (Q9H2X6 whole entry, species assumed): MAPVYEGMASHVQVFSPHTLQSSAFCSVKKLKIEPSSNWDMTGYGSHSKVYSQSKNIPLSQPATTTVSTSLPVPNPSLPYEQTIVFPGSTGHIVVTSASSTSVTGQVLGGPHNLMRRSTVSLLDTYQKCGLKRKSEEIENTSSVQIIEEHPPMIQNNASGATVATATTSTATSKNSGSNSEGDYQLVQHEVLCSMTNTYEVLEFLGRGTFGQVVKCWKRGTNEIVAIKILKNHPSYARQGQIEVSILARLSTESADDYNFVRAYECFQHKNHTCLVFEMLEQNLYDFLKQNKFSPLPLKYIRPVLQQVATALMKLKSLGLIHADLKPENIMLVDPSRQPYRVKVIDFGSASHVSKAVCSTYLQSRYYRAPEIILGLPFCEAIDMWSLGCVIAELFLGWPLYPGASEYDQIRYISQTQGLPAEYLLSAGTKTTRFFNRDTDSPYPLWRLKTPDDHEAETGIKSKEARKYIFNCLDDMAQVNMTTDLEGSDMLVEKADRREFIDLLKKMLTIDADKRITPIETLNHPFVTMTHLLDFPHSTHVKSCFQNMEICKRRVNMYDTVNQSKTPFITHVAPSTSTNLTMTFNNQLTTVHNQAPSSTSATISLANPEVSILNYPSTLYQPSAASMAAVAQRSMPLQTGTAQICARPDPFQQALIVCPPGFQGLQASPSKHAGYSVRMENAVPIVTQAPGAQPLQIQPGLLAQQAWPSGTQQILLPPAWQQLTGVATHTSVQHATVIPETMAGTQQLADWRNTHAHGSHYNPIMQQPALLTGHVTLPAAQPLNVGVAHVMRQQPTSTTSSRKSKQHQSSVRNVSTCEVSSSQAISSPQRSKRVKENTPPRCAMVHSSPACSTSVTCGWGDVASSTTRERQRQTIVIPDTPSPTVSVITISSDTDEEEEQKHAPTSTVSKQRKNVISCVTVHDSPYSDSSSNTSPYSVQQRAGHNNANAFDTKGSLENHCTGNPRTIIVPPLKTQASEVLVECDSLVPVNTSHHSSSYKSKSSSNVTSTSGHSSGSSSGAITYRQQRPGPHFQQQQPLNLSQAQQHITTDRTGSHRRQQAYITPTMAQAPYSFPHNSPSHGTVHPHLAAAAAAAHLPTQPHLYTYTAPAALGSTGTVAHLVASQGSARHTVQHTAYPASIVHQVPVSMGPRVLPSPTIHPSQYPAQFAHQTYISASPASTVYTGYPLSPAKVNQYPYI
Chain of JAK2 (O60674 whole entry, species assumed): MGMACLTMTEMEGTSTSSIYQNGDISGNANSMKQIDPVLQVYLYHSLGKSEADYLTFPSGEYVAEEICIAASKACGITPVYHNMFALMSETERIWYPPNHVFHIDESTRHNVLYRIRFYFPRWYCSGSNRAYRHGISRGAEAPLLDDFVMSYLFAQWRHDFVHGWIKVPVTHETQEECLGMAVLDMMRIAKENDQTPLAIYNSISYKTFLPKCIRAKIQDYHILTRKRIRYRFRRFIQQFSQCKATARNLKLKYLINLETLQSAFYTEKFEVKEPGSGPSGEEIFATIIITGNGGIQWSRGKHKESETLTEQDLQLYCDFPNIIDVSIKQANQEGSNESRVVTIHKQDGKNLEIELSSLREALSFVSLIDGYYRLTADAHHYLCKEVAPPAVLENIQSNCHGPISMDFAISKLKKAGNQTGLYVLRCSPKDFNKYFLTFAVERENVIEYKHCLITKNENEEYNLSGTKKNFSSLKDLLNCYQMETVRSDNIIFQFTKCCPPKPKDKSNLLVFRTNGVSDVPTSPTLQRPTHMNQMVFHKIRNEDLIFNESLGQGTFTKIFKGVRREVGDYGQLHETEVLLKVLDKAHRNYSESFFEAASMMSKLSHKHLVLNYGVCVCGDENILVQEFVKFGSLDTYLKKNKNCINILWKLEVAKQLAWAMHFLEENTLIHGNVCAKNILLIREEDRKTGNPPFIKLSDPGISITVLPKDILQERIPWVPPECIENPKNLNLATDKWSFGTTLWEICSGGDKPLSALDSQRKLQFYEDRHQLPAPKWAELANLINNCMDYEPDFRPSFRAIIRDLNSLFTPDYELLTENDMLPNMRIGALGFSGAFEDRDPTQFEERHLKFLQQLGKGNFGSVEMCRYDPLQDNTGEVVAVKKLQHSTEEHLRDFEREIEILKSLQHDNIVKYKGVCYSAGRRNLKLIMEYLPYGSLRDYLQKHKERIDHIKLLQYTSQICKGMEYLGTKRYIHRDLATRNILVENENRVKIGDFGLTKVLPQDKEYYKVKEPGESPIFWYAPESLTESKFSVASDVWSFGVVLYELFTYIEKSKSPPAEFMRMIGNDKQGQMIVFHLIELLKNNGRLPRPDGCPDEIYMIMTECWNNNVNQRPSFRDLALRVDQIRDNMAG
Chain of TrkA (P04629 33-796, species assumed): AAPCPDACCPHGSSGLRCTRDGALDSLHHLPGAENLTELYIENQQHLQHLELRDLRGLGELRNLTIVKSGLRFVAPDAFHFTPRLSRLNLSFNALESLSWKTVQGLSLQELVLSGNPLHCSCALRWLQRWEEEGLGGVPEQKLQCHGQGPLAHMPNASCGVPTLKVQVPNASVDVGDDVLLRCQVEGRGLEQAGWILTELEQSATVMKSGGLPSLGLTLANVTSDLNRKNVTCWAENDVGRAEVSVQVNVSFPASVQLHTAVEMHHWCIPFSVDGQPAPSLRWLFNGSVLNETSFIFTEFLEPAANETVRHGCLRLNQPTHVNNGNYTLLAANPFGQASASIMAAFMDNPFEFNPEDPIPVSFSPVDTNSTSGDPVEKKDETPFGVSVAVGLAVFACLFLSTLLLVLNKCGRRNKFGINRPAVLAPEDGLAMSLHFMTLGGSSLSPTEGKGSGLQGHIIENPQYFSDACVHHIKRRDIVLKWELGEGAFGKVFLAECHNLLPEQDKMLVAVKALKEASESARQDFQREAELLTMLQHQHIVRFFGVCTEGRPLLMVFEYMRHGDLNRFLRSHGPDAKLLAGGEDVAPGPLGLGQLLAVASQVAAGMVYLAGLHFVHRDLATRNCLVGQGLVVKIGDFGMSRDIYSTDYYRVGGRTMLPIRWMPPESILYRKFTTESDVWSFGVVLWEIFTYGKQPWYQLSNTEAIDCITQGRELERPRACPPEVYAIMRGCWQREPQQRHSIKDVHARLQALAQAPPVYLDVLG
Chain of MKK1 (Q02750 whole entry, species assumed): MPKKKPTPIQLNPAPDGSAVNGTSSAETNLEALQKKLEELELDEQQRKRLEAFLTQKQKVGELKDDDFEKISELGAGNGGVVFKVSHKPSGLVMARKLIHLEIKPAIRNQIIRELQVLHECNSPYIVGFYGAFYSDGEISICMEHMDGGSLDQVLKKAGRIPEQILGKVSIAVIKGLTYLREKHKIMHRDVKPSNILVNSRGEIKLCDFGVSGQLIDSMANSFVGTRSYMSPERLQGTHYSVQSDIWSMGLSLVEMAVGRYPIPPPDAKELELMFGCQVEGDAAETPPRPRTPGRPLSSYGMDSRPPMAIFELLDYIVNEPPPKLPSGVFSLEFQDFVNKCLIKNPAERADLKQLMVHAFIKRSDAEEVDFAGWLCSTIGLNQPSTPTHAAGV
Chain of CHK2 (O96017 whole entry, species assumed): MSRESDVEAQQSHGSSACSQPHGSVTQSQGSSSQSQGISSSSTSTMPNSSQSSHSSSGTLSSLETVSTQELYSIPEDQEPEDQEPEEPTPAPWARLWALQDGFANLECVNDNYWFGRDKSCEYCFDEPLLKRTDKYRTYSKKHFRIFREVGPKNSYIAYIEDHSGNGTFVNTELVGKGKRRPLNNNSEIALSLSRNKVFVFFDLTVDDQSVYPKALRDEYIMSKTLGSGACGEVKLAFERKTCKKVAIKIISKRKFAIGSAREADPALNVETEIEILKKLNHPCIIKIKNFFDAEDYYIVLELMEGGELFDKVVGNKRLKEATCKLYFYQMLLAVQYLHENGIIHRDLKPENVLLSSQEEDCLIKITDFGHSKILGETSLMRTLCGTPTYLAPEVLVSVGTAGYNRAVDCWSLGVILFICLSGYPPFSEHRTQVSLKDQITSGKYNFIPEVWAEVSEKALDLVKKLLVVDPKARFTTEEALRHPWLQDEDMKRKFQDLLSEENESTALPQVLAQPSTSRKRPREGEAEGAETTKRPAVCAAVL

O=C(Nc1nc2ccc(F)cc2s1)c1ccccc1 [Compound 03-92]
residual kinase activity, MKK1 (MKK1): 93
residual kinase activity, PKD1 (PKD1): 111
residual kinase activity, VEG-FR (VEG-FR): 53
residual kinase activity, SGK1 (SGK1): 93
residual kinase activity, JAK2 (JAK2): 109
residual kinase activity, CHK2 (CHK2): 80
residual kinase activity, TrkA (TrkA): 74
residual kinase activity, TAK1 (TAK1): 79
residual kinase activity, EF2K (EF2K): 134
residual kinase activity, DYRK1A (DYRK1A): 11
residual kinase activity, HIPK2 (HIPK2): 78

CC(=O)Nc1nc2ccc(F)cc2s1 [Compound 03-94]
residual kinase activity, MKK1 (MKK1): 76
residual kinase activity, PKD1 (PKD1): 105
residual kinase activity, VEG-FR (VEG-FR): 18
residual kinase activity, SGK1 (SGK1): 67
residual kinase activity, JAK2 (JAK2): 49
residual kinase activity, CHK2 (CHK2): 74
residual kinase activity, TrkA (TrkA): 58
residual kinase activity, TAK1 (TAK1): 26
residual kinase activity, EF2K (EF2K): 96
residual kinase activity, DYRK1A (DYRK1A): 12
residual kinase activity, HIPK2 (HIPK2): 27

COc1ccc2sc(NC(=O)c3ccccc3)nc2c1 [Compound 03-95]
residual kinase activity, MKK1 (MKK1): 92
residual kinase activity, PKD1 (PKD1): 92
residual kinase activity, VEG-FR (VEG-FR): 65
residual kinase activity, SGK1 (SGK1): 60
residual kinase activity, JAK2 (JAK2): 86
residual kinase activity, CHK2 (CHK2): 98
residual kinase activity, TrkA (TrkA): 35
residual kinase activity, TAK1 (TAK1): 45
residual kinase activity, EF2K (EF2K): 115
residual kinase activity, DYRK1A (DYRK1A): 30
residual kinase activity, HIPK2 (HIPK2): 74

COc1ccc2nc(NC(=O)c3ccccc3)sc2c1 [Compound 03-98]
residual kinase activity, MKK1 (MKK1): 105
residual kinase activity, PKD1 (PKD1): 104
residual kinase activity, VEG-FR (VEG-FR): 37
residual kinase activity, SGK1 (SGK1): 78
residual kinase activity, JAK2 (JAK2): 81
residual kinase activity, CHK2 (CHK2): 37
residual kinase activity, TrkA (TrkA): 60
residual kinase activity, TAK1 (TAK1): 60
residual kinase activity, EF2K (EF2K): 108
residual kinase activity, DYRK1A (DYRK1A): 6
residual kinase activity, HIPK2 (HIPK2): 41

O=C(Nc1nc2ccc(C(F)(F)F)cc2s1)c1ccccc1 [Compound 03-99]
residual kinase activity, MKK1 (MKK1): 87
residual kinase activity, PKD1 (PKD1): 114
residual kinase activity, VEG-FR (VEG-FR): 28
residual kinase activity, SGK1 (SGK1): 69
residual kinase activity, JAK2 (JAK2): 87
residual kinase activity, CHK2 (CHK2): 94
residual kinase activity, TrkA (TrkA): 84
residual kinase activity, TAK1 (TAK1): 95
residual kinase activity, EF2K (EF2K): 99
residual kinase activity, DYRK1A (DYRK1A): 9
residual kinase activity, HIPK2 (HIPK2): 90

O=C(Nc1nc2cc(O)ccc2s1)c1ccccc1 [Compound 03-102]
residual kinase activity, MKK1 (MKK1): 52
residual kinase activity, PKD1 (PKD1): 60
residual kinase activity, VEG-FR (VEG-FR): 11
residual kinase activity, SGK1 (SGK1): 86
residual kinase activity, JAK2 (JAK2): 47
residual kinase activity, CHK2 (CHK2): 26
residual kinase activity, TrkA (TrkA): 38
residual kinase activity, TAK1 (TAK1): 31
residual kinase activity, EF2K (EF2K): 92
residual kinase activity, DYRK1A (DYRK1A): 6
residual kinase activity, HIPK2 (HIPK2): 36

COC(=O)c1cccc(C(=O)Nc2nc3ccc(C(F)(F)F)cc3s2)c1 [Compound 03-105, Methyl 3-((6-(trifluoromethyl)benzo[d]thiazol-2-yl)carbamoyl)benzoate]
remaining activity at 100 µM (MKK1; read-out: residual kinase activity, MKK1): 86%
remaining activity at 100 µM (PKD1; read-out: residual kinase activity, PKD1): 90%
residual kinase activity, VEG-FR (VEG-FR): 29
remaining activity at 100 µM (SGK1; read-out: residual kinase activity, SGK1): 86%
remaining activity at 100 µM (JAK2; read-out: residual kinase activity, JAK2): 101%
remaining activity at 100 µM (CHK2; read-out: residual kinase activity, CHK2): 89%
remaining activity at 100 µM (TrkA; read-out: residual kinase activity, TrkA): 82%
remaining activity at 100 µM (TAK1; read-out: residual kinase activity, TAK1): 76%
remaining activity at 100 µM (EF2K; read-out: residual kinase activity, EF2K): 108%
remaining activity at 100 µM (DYRK1A; read-out: residual kinase activity, DYRK1A): 2%
remaining activity at 100 µM (HIPK2; read-out: residual kinase activity, HIPK2): 72%

N#Cc1ccc2nc(NC(=O)c3ccccc3)sc2c1 [Compound 03-106]
residual kinase activity, MKK1 (MKK1): 58
residual kinase activity, PKD1 (PKD1): 86
residual kinase activity, VEG-FR (VEG-FR): 36
residual kinase activity, SGK1 (SGK1): 77
residual kinase activity, JAK2 (JAK2): 87
residual kinase activity, CHK2 (CHK2): 62
residual kinase activity, TrkA (TrkA): 66
residual kinase activity, TAK1 (TAK1): 37
residual kinase activity, EF2K (EF2K): 100
residual kinase activity, DYRK1A (DYRK1A): 3
residual kinase activity, HIPK2 (HIPK2): 62

COC(=O)c1cccc(C(=O)Nc2nc3cc(OC)ccc3s2)c1 [Compound 03-108]
residual kinase activity, MKK1 (MKK1): 94
residual kinase activity, PKD1 (PKD1): 102
residual kinase activity, VEG-FR (VEG-FR): 77
residual kinase activity, SGK1 (SGK1): 83
residual kinase activity, JAK2 (JAK2): 85
residual kinase activity, CHK2 (CHK2): 65
residual kinase activity, TrkA (TrkA): 85
residual kinase activity, TAK1 (TAK1): 81
residual kinase activity, EF2K (EF2K): 91
residual kinase activity, DYRK1A (DYRK1A): 51
residual kinase activity, HIPK2 (HIPK2): 87

COC(=O)c1cccc(C(=O)Nc2nc3ccc(F)cc3s2)c1 [Compound 03-110]
residual kinase activity, MKK1 (MKK1): 70
residual kinase activity, PKD1 (PKD1): 88
residual kinase activity, VEG-FR (VEG-FR): 66
residual kinase activity, SGK1 (SGK1): 87
residual kinase activity, JAK2 (JAK2): 89
residual kinase activity, CHK2 (CHK2): 51
residual kinase activity, TrkA (TrkA): 111
residual kinase activity, TAK1 (TAK1): 68
residual kinase activity, EF2K (EF2K): 94
residual kinase activity, DYRK1A (DYRK1A): 13
residual kinase activity, HIPK2 (HIPK2): 66
